# Measured values published in PubChem BioAssay (NCI).
#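 Five concentrations, 48 hours, 96-well plates. The concentration for 50% growth inhibition is given as GI50. At the TGI there is no net growth.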
# Legend:
# Assay in all cases: growth of human tumour cells (NCI), 48 h
# [1] = tested on: 786-0 renal
# [2] = tested on: A498 renal
# [3] = tested on: A549 NSCLC
# [4] = tested on: ACHN renal
# [5] = tested on: BT-549 breast
# [6] = tested on: CAKI-1 renal
# [7] = tested on: CCRF-CEM leukemia
# [8] = tested on: COLO 205 colon
# [9] = tested on: DU-145 prostate
# [10] = tested on: EKVX NSCLC
# [11] = tested on: HCC-2998 colon
# [12] = tested on: HCT-116 colon
# [13] = tested on: HCT-15 colon
# [14] = tested on: HL-60(TB) leukemia
# [15] = tested on: HOP-62 NSCLC
# [16] = tested on: HOP-92 NSCLC
# [17] = tested on: HS 578T breast
# [18] = tested on: HT29 colon
# [19] = tested on: IGROV1 ovarian
# [20] = tested on: K-562 leukemia
# [21] = tested on: KM12 colon
# [22] = tested on: LOX IMVI melanoma
# [23] = tested on: M14 melanoma
# [24] = tested on: MALME-3M melanoma
# [25] = tested on: MCF7 breast
# [26] = tested on: MDA-MB-231 breast
# [27] = tested on: MDA-MB-435
# [28] = tested on: MOLT-4 leukemia
# [29] = tested on: NCI-H226 lung
compound,measurement,setting,value
O=C1c2[nH]cc(CN3CCN(CCO)CC3)c2C(=O)c2c1c(O)c1ccccc1c2O,GI50,[1],2.65 µM
same,TGI,[1],11 µM
same,GI50,[2],13.2 µM
same,TGI,[2],27.8 µM
same,GI50,[3],7.15 µM
same,TGI,[3],24.4 µM
same,GI50,[4],5.38 µM
same,TGI,[4],23.3 µM
same,GI50,[5],13.8 µM
same,TGI,[5],28.6 µM
same,GI50,[6],5.45 µM
same,TGI,[6],14.2 µM
same,GI50,[7],1.63 µM
same,GI50,[8],16.4 µM
same,TGI,[8],47.4 µM
same,GI50,[9],4.53 µM
same,TGI,[9],18.2 µM
same,GI50,[10],8.14 µM
same,TGI,[10],22.5 µM
same,GI50,[11],6.51 µM
same,TGI,[11],21.1 µM
same,GI50,[12],1.76 µM
same,TGI,[12],5.47 µM
same,GI50,[13],2.87 µM
same,TGI,[13],18.6 µM
same,GI50,[14],2.83 µM
same,TGI,[14],48.9 µM
same,GI50,[15],1.92 µM
same,TGI,[15],15 µM
same,GI50,[16],1.14 µM
same,TGI,[16],9.56 µM
same,GI50,[17],8.14 µM
same,TGI,[17],24.4 µM
same,GI50,[18],12.3 µM
same,TGI,[18],31.6 µM
same,GI50,[19],1.61 µM
same,TGI,[19],15.1 µM
same,GI50,[20],2.17 µM
same,TGI,[20],> 100 µM
same,GI50,[21],1.62 µM
same,TGI,[21],3.91 µM
same,GI50,[22],1.95 µM
same,TGI,[22],6.34 µM
same,GI50,[23],1.69 µM
same,TGI,[23],3.86 µM
same,GI50,[24],7.69 µM
same,TGI,[24],24.9 µM
same,GI50,[25],5.63 µM
same,TGI,[25],21.9 µM
same,GI50,[26],4.89 µM
same,TGI,[26],16.3 µM
same,GI50,[27],1.84 µM
same,TGI,[27],4.14 µM
same,GI50,[28],1.38 µM
same,TGI,[28],9.48 µM
same,GI50,[29],10.5 µM
